According to paper PMC6028563, “Probing Substituents in the 1- and 3-Position: Tetrahydropyrazino-Annelated Water-Soluble Xanthine Derivatives as Multi-Target Drugs With Potent Adenosine Receptor Antagonistic Activity” (Frontiers in Chemistry, 2018):
Values after ≈ are worked out from the molar mass of the structure shown. Like-named read-outs stand apart in the source and are kept apart here.

Assays:
human A2A AR = target: T1, human A2A AR (Homo sapiens, UniProt P29274); experiment: Radioligand binding assay at human A2A AR vs. [^3H]MSX-2; conditions: for Ki: CHO cell membranes, n = 3, read-out: Ki ± SEM, A2A vs. [^3H]MSX-2
T1 construct: expressed in transfected cells; host or cells: CHO cells
Protocol: Membrane preparations and radioligand binding assays at rat A1 (rat brain cortex) and rat A2A ARs (rat brain striatum) were performed as previously described (Ozola et al., [2003]; Alnouri et al., [2015]). For assays at human A1, A2A, A2B, and A3 ARs, CHO cell membranes expressing one of the human AR subtypes were used as previously reported (Klotz et al., [1998]; Alnouri et al., [2015]; De Filippo et al., [2016]).
The synthesized tetrahydropyrazino[2,1-f ]purinediones 13–20 were evaluated in radioligand binding assays for their affinity to A1 ARs of rat brain cortical membrane and to A2A ARs of rat brain striatal membrane preparations. Selected compounds were further investigated for their affinity to human A1 and A2A ARs recombinantly expressed in Chinese hamster ovary (CHO) cells. All compounds were additionally investigated for their affinity to human A2B and A3 ARs recombinantly expressed in CHO cells to determine their AR subtype selectivity. […] It is well known that all xanthine derivatives lacking a ribose moiety, including tricyclic compounds, can only block ARs, but never act as AR agonists; therefore, additional functional studies were not required. […] Potent MAO-B inhibitors were additionally investigated for inhibition of human MAO-A to assess their selectivity. Results are presented in Tables 1–6, and data of standard ligands are included for comparison.

rat A2A AR = target: T2, rat A2A AR (Rattus norvegicus, UniProt P30543); experiment: Radioligand binding assay at rat A2A AR (rat brain striatum) vs. [^3H]MSX-2; conditions: rat (r); for % inhibition of radioligand binding at indicated concentration, A2A vs. [^3H]MSX-2: at 1,000 nM; for Ki: rat brain striatum, n = 3, read-out: Ki ± SEM, A2A vs. [^3H]MSX-2
T2 construct: A2A ARs of rat brain striatal membrane preparations; from tissue; host or cells: rat brain striatum membranes
Method in brief: (§1)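 Membranes were prepared from rat brain cortex for A1 and from rat striatum for A2A, then used in radioligand displacement. For the human receptors, CHO cells recombinantly expressing a single AR subtype supplied the membranes.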

rat A1 AR = target: T3, rat A1 AR (Rattus norvegicus, UniProt P25099); experiment: Radioligand binding assay at rat A1 AR (rat brain cortex) vs. [^3H]CCPA; conditions: rat (r); rat brain cortex; n = 3
T3 construct: A1 ARs of rat brain cortical membrane; from tissue; host or cells: rat brain cortex membranes
T3 sequence (P25099 1-326): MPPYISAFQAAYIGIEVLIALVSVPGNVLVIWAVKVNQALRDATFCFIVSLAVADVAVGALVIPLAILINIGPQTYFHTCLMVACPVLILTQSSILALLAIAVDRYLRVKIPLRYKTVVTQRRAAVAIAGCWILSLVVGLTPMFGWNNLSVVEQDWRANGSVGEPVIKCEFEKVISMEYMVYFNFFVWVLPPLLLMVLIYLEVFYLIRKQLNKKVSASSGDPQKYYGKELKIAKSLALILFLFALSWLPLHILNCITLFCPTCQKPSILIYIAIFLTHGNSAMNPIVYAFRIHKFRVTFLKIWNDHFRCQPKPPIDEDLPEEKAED
Method in brief: as §1

human A2B AR = target: T4, human A2B AR (Homo sapiens, UniProt P29275); experiment: Radioligand binding assay at human A2B AR vs. [^3H]PSB-603; conditions: for Ki: CHO cell membranes, n = 2 (n = 3 where marked a), read-out: Ki ± SEM, A2B vs. [^3H]PSB-603; for inhibition at 1 µM: at 1,000 nM
T4 construct: expressed in transfected cells; host or cells: CHO cells
T4 sequence (P29275 1-332): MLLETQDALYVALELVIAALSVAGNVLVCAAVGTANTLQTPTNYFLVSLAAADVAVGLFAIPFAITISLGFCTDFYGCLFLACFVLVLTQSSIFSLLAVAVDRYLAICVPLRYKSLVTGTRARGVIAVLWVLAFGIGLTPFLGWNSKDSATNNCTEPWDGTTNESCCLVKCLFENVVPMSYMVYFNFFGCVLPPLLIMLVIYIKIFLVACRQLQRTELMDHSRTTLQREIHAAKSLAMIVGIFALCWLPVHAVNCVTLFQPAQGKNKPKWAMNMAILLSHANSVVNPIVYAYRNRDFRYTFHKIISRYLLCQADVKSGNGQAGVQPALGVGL
Method in brief: as §1

human A1 AR = target: T5, human A1 AR (Homo sapiens, UniProt P30542); experiment: Radioligand binding assay at human A1 AR vs. [^3H]CCPA; conditions: human (h); CHO cell membranes; n = 3
T5 construct: expressed in transfected cells; host or cells: CHO cells
T5 sequence (P30542 1-326): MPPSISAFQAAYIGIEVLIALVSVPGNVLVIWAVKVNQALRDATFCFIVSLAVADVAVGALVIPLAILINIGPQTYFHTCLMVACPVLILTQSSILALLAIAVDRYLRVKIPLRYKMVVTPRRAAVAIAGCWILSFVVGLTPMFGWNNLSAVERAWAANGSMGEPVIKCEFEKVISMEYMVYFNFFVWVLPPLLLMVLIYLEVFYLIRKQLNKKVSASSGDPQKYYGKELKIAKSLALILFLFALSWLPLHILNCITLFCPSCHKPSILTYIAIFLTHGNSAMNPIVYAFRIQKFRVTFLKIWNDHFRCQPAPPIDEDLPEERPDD
Method in brief: as §1

recombinant human MAO-A = target: T6, recombinant human MAO-A (Homo sapiens, UniProt P21397); experiment: Monoamine oxidase assay (Amplex Red), MAO-A; assay type: biochemical; conditions: for inhibition at 10 µM: at 10,000 nM, read-out: % inhibition at indicated concentration, Human MAO-A; for IC50: n = 3, read-out: IC50 ± SEM, Human MAO-A
T6 construct: purchased Sigma-Aldrich M7316; host or cells: baculovirus-infected insect cells
T6 sequence (P21397 1-527): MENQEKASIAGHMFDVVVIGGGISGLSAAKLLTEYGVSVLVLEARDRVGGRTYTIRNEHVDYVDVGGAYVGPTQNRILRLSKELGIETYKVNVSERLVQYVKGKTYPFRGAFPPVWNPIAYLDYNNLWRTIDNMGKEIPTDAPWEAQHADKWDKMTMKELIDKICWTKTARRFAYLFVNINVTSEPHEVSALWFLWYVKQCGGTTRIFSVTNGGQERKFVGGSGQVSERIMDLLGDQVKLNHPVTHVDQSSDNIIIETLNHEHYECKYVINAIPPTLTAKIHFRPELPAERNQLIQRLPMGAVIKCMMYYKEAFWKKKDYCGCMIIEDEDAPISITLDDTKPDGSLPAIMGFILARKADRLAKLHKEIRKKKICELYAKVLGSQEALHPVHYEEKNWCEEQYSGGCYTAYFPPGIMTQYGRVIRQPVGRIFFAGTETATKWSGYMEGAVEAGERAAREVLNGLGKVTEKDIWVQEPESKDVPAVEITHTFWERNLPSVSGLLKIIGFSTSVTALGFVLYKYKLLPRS
Method in brief: (§2)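 Recombinant human MAO-A and MAO-B, expressed in baculovirus-infected insect cells, were assayed by Amplex Red fluorometric detection. Rat MAO-B inhibition used mitochondria-enriched fractions from male Sprague Dawley rat liver.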

recombinant human MAO-B = target: T7, recombinant human MAO-B (Homo sapiens, UniProt P27338); experiment: Monoamine oxidase assay (Amplex Red), MAO-B; assay type: biochemical; conditions: for inhibition at 10 µM: at 10,000 nM (10 μM), read-out: % inhibition at indicated concentration, Human MAO-B; for IC50: n = 3, read-out: IC50 ± SEM, Human MAO-B
T7 construct: purchased Sigma-Aldrich M7441; host or cells: baculovirus-infected insect cells
T7 sequence (P27338 1-520): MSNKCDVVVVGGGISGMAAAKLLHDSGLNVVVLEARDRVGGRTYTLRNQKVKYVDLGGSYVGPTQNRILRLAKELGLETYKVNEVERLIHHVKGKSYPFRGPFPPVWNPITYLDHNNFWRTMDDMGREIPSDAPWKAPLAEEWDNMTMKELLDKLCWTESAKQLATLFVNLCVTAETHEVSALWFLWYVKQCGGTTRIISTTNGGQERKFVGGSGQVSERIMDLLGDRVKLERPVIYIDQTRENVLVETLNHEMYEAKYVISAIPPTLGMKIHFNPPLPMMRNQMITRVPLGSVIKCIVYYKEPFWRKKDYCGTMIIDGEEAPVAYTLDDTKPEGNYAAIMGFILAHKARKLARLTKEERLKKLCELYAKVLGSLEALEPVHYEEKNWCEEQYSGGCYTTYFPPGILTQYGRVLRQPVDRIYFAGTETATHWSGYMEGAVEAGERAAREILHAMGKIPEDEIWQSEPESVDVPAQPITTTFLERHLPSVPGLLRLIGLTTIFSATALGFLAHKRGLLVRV
Method in brief: as §2

[1] = Thermodynamic solubility measurements; assay type: physicochemical; conditions: thermodynamic from solid, thermodynamic solubility
Description: This is expected to facilitate dissolution in the stomach. Depending on the substitution pattern they may also be well soluble at higher pH values (Brunschweiger et al., [2014]). In the present study we measured thermodynamic solubility of only very few compounds exemplarily (14a-e, 14g, 15f,g) and confirmed their high solubility at pH 1 (see Table S1 in Supplementary Material). Most of these compounds were still soluble at pH 7.4. The best soluble derivative was the 3-ethyl-1-methyl-8-m-fluorobenzyl derivative 14g with solubilities of >1.5 g/L (4.2 mM) at pH 1, 50 mg/L (0.14 mM) at pH 4, and 40 mg/L ([…]) at pH 7.4.
Table S1. Solubility of selected compounds at three different pH values (in mg/mL).a
Compound pH 1 pH 4 pH 7.4
adetermined by thermodynamic solubility measurements.

human A3 AR = target: T8, human A3 AR (Homo sapiens, UniProt P0DMS8); experiment: Radioligand binding assay at human A3 AR vs. [^3H]PSB-11; conditions: for Ki: CHO cell membranes, n = 2 (n = 3 where marked a), read-out: Ki ± SEM, A3 vs. [^3H]PSB-11
T8 construct: expressed in transfected cells; host or cells: CHO cells
T8 sequence (P0DMS8 1-318): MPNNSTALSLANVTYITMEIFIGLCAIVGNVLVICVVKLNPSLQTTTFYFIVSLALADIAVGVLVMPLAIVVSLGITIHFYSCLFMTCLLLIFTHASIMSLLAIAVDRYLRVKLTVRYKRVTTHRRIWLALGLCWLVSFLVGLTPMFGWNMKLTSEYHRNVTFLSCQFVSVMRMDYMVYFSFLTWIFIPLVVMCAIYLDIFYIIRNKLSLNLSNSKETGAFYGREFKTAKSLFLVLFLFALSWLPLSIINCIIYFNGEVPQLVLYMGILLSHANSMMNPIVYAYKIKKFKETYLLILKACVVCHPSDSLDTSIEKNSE
Method in brief: as §1

[2] = read-out: % inhibition of radioligand binding at indicated concentration, A2B vs. [^3H]PSB-603

T2 sequence (P30543 whole entry): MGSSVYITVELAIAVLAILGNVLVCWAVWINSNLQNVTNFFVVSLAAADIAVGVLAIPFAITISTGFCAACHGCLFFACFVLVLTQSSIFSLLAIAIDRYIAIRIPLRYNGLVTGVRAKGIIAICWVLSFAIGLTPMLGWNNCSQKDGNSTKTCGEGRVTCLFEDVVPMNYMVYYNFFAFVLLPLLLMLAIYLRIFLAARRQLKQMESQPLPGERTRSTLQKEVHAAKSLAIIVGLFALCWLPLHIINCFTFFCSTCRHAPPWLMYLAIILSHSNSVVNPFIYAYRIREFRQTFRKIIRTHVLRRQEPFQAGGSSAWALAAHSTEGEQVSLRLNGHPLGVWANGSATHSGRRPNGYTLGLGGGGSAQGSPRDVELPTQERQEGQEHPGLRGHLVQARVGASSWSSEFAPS
T1 sequence (P29274 whole entry): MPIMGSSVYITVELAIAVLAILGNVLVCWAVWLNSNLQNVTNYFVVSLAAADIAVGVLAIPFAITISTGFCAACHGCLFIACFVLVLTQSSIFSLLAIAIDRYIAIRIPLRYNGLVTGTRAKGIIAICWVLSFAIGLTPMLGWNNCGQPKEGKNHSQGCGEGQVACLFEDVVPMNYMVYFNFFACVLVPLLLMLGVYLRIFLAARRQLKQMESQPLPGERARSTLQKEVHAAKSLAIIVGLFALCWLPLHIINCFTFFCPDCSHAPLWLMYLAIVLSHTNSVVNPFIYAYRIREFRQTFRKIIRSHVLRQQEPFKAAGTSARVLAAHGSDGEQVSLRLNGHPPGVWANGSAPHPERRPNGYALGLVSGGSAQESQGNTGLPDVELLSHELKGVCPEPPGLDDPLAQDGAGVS

| Structure (SMILES) | % inhibition of radioligand binding at indicated concentration, A2A vs. [^3H]MSX-2 (human A2A AR; at 1,000 nM) | % inhibition of radioligand binding at indicated concentration, A2A vs. [^3H]MSX-2 (rat A2A AR) | Ki (rat A2A AR) | Ki (rat A1 AR) | inhibition at 10 µM (human A2B AR; at 10,000 nM, read-out: % inhibition of radioligand binding at indicated concentration, A2B vs. [^3H]PSB-603) | Ki (human A1 AR) | inhibition at 10 µM (recombinant human MAO-A) | IC50 (recombinant human MAO-A) | inhibition at 10 µM (recombinant human MAO-B) | IC50 (recombinant human MAO-B) | solubility ([1]; aqueous buffer, pH 4, read-out: Solubility, pH 4) | solubility ([1]; aqueous buffer, pH 7.4, read-out: Solubility, pH 7.4) | solubility ([1]; simulated gastric fluid, pH 1, read-out: Solubility, pH 1) | Ki (human A2B AR) | inhibition at 1 µM (human A2B AR; [2]) | Ki (human A3 AR) | Ki (human A2A AR) | inhibition at 10 µM (human A3 AR; at 10,000 nM, read-out: % inhibition of radioligand binding at indicated concentration, A3 vs. [^3H]PSB-11) |
| --- | --- | --- | --- | --- | --- | --- | --- | --- | --- | --- | --- | --- | --- | --- | --- | --- | --- | --- |
| CCn1c(=O)c2c(nc3n2CCN(Cc2cccc(Cl)c2)C3)n(C)c1=O [Compound 14i, 8-(3-chlorobenzyl)-3-ethyl-1-methyl-6,7,8,9-tetrahydropyrazino[2,1-f]purine-2,4(1H,3H)-dione] | 8% | 33% | > 1000 nM | 53 ± 5.8 nM | 36% | 121 ± 45 nM | 20% | > 10000 nM | > 50% | ≤ 10000 nM | – | – | – | – | – | – | – | – |
| CCn1c(=O)c2c(nc3n2CCN(Cc2ccccc2C(F)(F)F)C3)n(CC)c1=O [Compound 15f, 1,3-diethyl-8-(2-(trifluoromethyl)benzyl)-6,7,8,9-tetrahydropyrazino[2,1-f]purine-2,4(1H,3H)-dione] | – | 32% | > 1000 nM | 51.4 ± 14.7 nM | – | 129 ± 9 nM | – | – | 41% | > 10000 nM | 0.9 µg/mL (≈ 2.14 µM) | 0.7 µg/mL (≈ 1.66 µM) | 300 µg/mL (≈ 712 µM) | > 1000 nM | 2% | 4060 nM | – | – |
| CCCn1c(=O)c2c(nc3n2CCN(Cc2ccc(Cl)c(Cl)c2)C3)n(C)c1=O [Compound 18] | – | – | 675 ± 104 nM | 152 ± 12 nM | – | 475 ± 47 nM | 9% | > 10000 nM | – | 2910 nM | – | – | – | – | – | 12700 nM | 2110 nM | – |
| C#CCn1c(=O)c2c(nc3n2CCN(CCc2cccc(OC)c2)C3)n(CC)c1=O [Compound 20j, 1-ethyl-8-(3-methoxyphenethyl)-3-propargyl-6,7,8,9-tetrahydropyrazino[2,1-f]purine-2,4(1H,3H)-dione] | – | – | 798 ± 134 nM | 669 ± 35 nM | – | 1020 nM | – | – | 30% | > 10000 nM | – | – | – | > 1000 nM | 11% | > 10000 nM | 25500 nM | 13% |
